Some results are limits rather than exact numbers.

Experimental findings from ChEMBL document CHEMBL3352223, “Synthesis, anti-cancer and anti-inflammatory activity of novel 2-substituted isoflavenes” (Bioorg Med Chem, 2014) are described below.

One assay has as its system RAW264.7. The assay can be described thus: Antiinflammatory activity against mouse RAW264.7 cells assessed as reduction of LPS-induced IL6 production at 10 uM after 24 hrs by ELISA. Conditions: RAW264.7, 24 h. The assay is classed as functional.
The subject of a further assay is MDA-MB-231. The experiment in a line: Antiproliferative activity against human MDA-MB-231 cells after 72 hrs by Alamar blue/spectrophotometric analysis. The assay is classed as functional, cell-based. The following applies: MDA-MB-231, 72 h. (Resazurin is reduced to fluorescent resorufin, in cell work by metabolically active cells.)
Assay [1] can be described thus: Antiproliferative activity against human SHEP cells after 72 hrs by Alamar blue/spectrophotometric analysis. The assay is classed as functional, cell-based.

As to `CC(=O)CC1Oc2cc(O)ccc2C=C1c1ccc(O)cc1` (centres undefined), the inhibition at 10 µM in the assay on RAW264.7 is > 50%. Moreover, the IC50 with MDA-MB-231 was determined as 145 µM; in assay [1], 124 µM.
Take `O=C(CC1Oc2cc(O)ccc2C=C1c1ccc(O)cc1)c1cccc2ccccc12` (centres undefined): the half-maximal inhibitory concentration (IC50) is 106 µM with MDA-MB-231 and 128 µM in assay [1].
For `Cc1ccc(C(=O)CC2Oc3cc(O)ccc3C=C2c2ccc(O)cc2)cc1` (centres undefined), the results for the concentration for half-maximal inhibition (IC50) (with MDA-MB-231; in assay [1]) were 55 µM and 60 µM, respectively.
With `CC(C)CC(=O)CC1Oc2cc(O)ccc2C=C1c1ccc(O)cc1` (centres undefined), the figures for the IC50 (with MDA-MB-231; in assay [1]) were 67 µM and 139 µM, respectively.
In the case of `COc1ccc(C(=O)CC2Oc3cc(O)ccc3C=C2c2ccc(O)cc2)cc1` (centres undefined), the inhibition at 10 µM with RAW264.7 is > 50%. The half-inhibitory concentration (IC50) in the assay with MDA-MB-231 is 7.6 µM; in assay [1], 37 µM.
For `Cc1cc(C2Oc3cc(O)ccc3C=C2c2ccc(O)cc2)cc(C)c1N` (centres undefined), the inhibition at 10 µM in the assay on RAW264.7 is > 50%. The 50% inhibitory concentration (IC50) in the assay on MDA-MB-231 turned out to be 53 µM; in assay [1], 102 µM.
Consider `Oc1ccc(C2=Cc3ccc(O)cc3OC2)cc1` [IDRONOXIL], for which the IC50 was determined as 33 µM in the assay with MDA-MB-231 and 9.9 µM in assay [1].
The corresponding values for `O=C(CC1Oc2cc(O)ccc2C=C1c1ccc(O)cc1)c1ccc(Br)cc1` (centres undefined) are 37 µM and 33 µM.
Take `O=C(CC1Oc2cc(O)ccc2C=C1c1ccc(O)cc1)c1ccc(Cl)cc1` (centres undefined): the IC50 was 151 µM with MDA-MB-231 and 167 µM in assay [1].
The like results for `O=C(CC1Oc2cc(O)ccc2C=C1c1ccc(O)cc1)c1ccccc1` (centres undefined) were, in that order, 88 µM and 102 µM.
Take `C/C(CC1Oc2cc(O)ccc2C=C1c1ccc(O)cc1)=N\Nc1ccc([N+](=O)[O-])cc1[N+](=O)[O-]` (centres undefined): the IC50 is 36 µM in the assay with MDA-MB-231 and 62 µM in assay [1].
As to `CCc1ccc(C(=O)CC2Oc3cc(O)ccc3C=C2c2ccc(O)cc2)cc1` (centres undefined), the half-maximal inhibitory concentration (IC50) worked out at 198 µM in the assay on MDA-MB-231 and 377 µM in assay [1].
Regarding `COc1ccc(C2=C(c3ccc(O)cc3)C(CC(C)=O)Oc3cc(O)ccc32)cc1` (centres undefined), the IC50 was 39 µM in the assay with MDA-MB-231 and 69 µM in assay [1].

As a reminder, the inhibition is the drop in the measured response relative to a control, in per cent. As a reminder, the IC50 is the concentration needed to halve the response being measured. Low values mean greater potency, high ones weaker potency.
